Measurements from ChEMBL document CHEMBL5154675, “Design, Synthesis, and Biological Evaluation of 1-(Indolizin-3-yl)ethan-1-ones as CBP Bromodomain Inhibitors for the Treatment of Prostate Cancer” (J Med Chem, 2022).
pIC50, pKd: −log10 of the molar value. The source made the active and inactive calls. No cut-off for these calls is given here.

What was measured:
CWR22R [1] = assay: Antitumor activity against human 22Rv1 cells xenografted in NOD SCID mouse assessed as tumor growth inhibition at 40 mg/kg, po administered 5 times per week via oral gavage for 14 days and measured every other day relative to control; assay type: functional; details: 22Rv1, 336 h, time 14 day, read-out: TGI
[2] = Toxicity in NOD SCID mouse xenografted with human 22Rv1 cells assessed as body weight loss at 40 mg/kg, ip administered once daily for 21 days and measured every other day; assay type: organism-based, CWR22R; details: in vivo, 504 h, time 21 day
CWR22R [3] = assay: Suppression of full length Androgen receptor gene expression in human 22Rv1 cells incubated for 48 hrs by SYBR green dye-based qRT-PCR analysis; assay type: functional, cell-based; details: dose 0-20 µM, DDE = dose-dependent effect
LNCaP C4-2B [4] = assay: Induction of apoptosis in human LNCaP C4-2B cells assessed as increase in apoptotic cells at 10 uM measured after 48 hrs by Annexin V-FITC and propidium iodide staining based flow cytometry (Rvb= 1%); assay type: functional
LNCaP [5] = assay: Suppression of c-Myc protein expression in human LNCaP cells at 5 uM incubated for 48 hrs by Western blot analysis; assay type: functional, cell-based
CWR22R [6] = assay: Suppression of PSA gene expression in human 22Rv1 cells incubated for 48 hrs by dual luciferase reporter assay; assay type: functional, cell-based; details: dose 0-20 µM, DDE = dose-dependent effect
LNCaP [7] = assay: Suppression of Androgen receptor target-gene expression in human LNCaP cells at 5 uM incubated for 48 hrs by SYBR green dye-based qRT-PCR analysis; assay type: functional, cell-based
[8] = Half life in rat liver microsomes at 1 uM incubated for 45 mins in presence of NADPH by LC-MS/MS analysis; assay type: ADME, Microsome
[9] = AUC (0 to infinity) in Sprague-Dawley rat at 25 mg/kg, po measured up to 24 hrs; assay type: ADME, organism-based; parameters: time < 24 hrs, dose 25 mg/kg, route po; details: in vivo
[10] = target: T1, Bromodomain-containing protein 2 (Homo sapiens, UniProt P25440); details: dose 200.0 µM, time 30.0 min
Target sequence in this assay (P25440 whole entry, looked up): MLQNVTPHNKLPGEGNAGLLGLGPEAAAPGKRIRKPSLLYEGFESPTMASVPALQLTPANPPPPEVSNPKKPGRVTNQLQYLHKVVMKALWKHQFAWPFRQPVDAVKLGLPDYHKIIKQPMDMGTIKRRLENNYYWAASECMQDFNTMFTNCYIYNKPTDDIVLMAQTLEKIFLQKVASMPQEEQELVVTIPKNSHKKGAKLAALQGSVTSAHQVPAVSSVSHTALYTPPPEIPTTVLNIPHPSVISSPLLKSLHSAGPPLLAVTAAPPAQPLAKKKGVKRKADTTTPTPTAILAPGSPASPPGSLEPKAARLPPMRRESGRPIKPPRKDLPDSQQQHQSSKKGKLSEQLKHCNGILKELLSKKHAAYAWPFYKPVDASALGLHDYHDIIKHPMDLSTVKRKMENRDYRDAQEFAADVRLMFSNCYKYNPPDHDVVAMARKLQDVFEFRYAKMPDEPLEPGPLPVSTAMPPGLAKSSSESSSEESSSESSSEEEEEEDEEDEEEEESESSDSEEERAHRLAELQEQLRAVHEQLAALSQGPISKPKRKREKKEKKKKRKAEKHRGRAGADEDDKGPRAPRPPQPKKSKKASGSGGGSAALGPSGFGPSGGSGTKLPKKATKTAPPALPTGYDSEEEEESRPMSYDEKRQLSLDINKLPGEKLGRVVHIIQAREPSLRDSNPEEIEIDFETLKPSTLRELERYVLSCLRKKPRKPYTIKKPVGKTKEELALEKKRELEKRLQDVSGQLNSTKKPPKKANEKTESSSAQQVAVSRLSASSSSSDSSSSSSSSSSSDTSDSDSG

in vitro = details: rat, liver microsomes
Description: Hepatic extraction ratio in rat liver microsomes at 1 uM incubated for 45 mins in presence of NADPH by LC-MS/MS analysis

[11] = Apparent permeability across basolateral to apical side in human Caco-2 cells at 10 uM measured after 2 hrs by LC-MS/MS analysis; assay type: ADME, cell-based
[12] = target: Histone acetyltransferase KAT2B (Homo sapiens) (UniProt Q92831); details: dose 200.0 µM, time 30.0 min
Histone acetyltransferase KAT2B (Homo sapiens), sequence (Q92831 whole entry, looked up): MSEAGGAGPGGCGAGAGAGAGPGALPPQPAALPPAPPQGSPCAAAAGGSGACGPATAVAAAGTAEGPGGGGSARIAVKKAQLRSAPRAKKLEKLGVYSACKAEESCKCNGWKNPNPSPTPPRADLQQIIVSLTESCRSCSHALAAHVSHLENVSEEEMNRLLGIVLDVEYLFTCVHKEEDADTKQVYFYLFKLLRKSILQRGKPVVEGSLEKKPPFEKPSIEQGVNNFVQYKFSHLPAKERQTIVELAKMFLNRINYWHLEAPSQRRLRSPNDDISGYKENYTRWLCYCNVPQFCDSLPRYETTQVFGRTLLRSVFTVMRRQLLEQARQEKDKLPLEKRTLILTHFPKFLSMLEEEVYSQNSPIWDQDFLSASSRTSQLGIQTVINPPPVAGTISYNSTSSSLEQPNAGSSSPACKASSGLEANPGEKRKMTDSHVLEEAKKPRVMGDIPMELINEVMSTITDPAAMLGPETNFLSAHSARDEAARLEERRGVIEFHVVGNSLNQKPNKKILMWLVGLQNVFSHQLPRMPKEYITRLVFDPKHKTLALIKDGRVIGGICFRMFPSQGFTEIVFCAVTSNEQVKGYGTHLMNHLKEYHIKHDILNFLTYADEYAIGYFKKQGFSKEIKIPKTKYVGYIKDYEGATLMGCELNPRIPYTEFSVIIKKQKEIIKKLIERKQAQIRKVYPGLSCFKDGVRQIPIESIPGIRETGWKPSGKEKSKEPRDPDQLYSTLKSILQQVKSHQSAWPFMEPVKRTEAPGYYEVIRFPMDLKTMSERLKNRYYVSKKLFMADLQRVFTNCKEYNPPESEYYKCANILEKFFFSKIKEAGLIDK

CWR22R [13] = assay: Antiproliferative activity against human 22Rv1 cells assessed as cell growth inhibition by Celltiter-Glo assay; assay type: functional, cell-based
[14] = target: T2, Bromodomain-containing protein 3 (Homo sapiens, UniProt Q15059); details: dose 200.0 µM, time 30.0 min
[15] = Intrinsic clearance in rat liver microsomes at 1 uM incubated for 45 mins in presence of NADPH by LC-MS/MS analysis; assay type: ADME, Microsome; details: read-out: CLH
[16] = target: T1, Bromodomain-containing protein 2; assay: Binding affinity to His6-tagged human BRD2 bromodomain-1 (77 to 194 residues) expressed in Escherichia coli BL21 (DE3) assessed as dissociation constant by ITC analysis
Target sequence in this assay (P25440 whole entry): as the sequence (P25440 whole entry, looked up) above

[17] = target: PH-interacting protein (Homo sapiens) (UniProt Q8WWQ0); details: dose 200.0 µM, time 30.0 min
[18] = Metabolic stability in rat liver microsomes assessed as parent compound remaining at 1 uM incubated for 45 mins in presence of NADPH by LC-MS/MS analysis; assay type: ADME, Microsome; details: read-out: Stability
[19] = Hepatic clearance in human liver microsomes at 1 uM incubated for 45 mins in presence of NADPH by LC-MS/MS analysis; assay type: ADME, Microsome; details: read-out: CLH
[20] = target: Chromatin remodeling regulator CECR2 (Homo sapiens) (UniProt Q9BXF3); details: dose 200.0 µM, time 30.0 min
Chromatin remodeling regulator CECR2 (Homo sapiens), sequence (Q9BXF3 whole entry, looked up): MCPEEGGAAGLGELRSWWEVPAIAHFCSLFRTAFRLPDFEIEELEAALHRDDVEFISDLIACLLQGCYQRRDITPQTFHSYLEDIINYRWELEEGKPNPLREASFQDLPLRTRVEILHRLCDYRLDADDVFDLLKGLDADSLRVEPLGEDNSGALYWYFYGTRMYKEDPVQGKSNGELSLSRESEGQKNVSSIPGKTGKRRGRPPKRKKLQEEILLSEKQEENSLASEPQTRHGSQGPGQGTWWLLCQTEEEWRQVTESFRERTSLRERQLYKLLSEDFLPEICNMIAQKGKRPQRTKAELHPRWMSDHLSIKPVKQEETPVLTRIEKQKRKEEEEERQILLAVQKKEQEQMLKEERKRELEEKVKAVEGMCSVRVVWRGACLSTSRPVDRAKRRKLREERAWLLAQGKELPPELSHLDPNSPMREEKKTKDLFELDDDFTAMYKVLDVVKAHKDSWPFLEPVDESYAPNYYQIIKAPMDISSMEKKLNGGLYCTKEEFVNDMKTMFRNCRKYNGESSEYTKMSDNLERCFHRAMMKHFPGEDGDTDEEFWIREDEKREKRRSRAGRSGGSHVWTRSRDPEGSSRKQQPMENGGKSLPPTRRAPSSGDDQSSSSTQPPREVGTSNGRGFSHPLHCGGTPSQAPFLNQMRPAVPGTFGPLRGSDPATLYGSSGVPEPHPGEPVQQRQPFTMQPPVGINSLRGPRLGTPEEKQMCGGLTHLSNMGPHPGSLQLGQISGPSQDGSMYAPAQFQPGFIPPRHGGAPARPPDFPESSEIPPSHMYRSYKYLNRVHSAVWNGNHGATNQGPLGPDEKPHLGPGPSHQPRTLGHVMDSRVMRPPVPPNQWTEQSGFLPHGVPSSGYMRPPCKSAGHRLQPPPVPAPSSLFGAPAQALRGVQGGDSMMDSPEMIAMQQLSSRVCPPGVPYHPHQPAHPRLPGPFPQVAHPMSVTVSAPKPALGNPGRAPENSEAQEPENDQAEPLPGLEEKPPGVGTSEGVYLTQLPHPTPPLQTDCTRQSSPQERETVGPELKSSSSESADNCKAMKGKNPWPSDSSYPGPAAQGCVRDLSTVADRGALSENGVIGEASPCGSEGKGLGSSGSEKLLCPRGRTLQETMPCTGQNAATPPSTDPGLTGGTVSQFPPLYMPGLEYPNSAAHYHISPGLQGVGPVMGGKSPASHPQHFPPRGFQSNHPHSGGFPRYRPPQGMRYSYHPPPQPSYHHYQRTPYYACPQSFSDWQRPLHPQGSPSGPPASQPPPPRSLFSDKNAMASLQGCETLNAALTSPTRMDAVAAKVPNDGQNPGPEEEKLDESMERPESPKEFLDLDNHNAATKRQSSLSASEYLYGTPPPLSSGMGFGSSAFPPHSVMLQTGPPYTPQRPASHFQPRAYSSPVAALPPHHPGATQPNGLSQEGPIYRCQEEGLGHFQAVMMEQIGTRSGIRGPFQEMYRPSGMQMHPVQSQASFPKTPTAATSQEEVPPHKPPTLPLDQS

[21] = Oral bioavailability in Sprague-Dawley rat at 25 mg/kg measured up to 24 hrs; assay type: ADME, organism-based; details: in vivo
[22] = target: T2, Bromodomain-containing protein 3; assay: Binding affinity to His6-tagged human BRD3 bromodomain-2 (306 to 416 residues) expressed in Escherichia coli BL21 (DE3) assessed as dissociation constant by ITC analysis
Target sequence in this assay (Q15059 whole entry): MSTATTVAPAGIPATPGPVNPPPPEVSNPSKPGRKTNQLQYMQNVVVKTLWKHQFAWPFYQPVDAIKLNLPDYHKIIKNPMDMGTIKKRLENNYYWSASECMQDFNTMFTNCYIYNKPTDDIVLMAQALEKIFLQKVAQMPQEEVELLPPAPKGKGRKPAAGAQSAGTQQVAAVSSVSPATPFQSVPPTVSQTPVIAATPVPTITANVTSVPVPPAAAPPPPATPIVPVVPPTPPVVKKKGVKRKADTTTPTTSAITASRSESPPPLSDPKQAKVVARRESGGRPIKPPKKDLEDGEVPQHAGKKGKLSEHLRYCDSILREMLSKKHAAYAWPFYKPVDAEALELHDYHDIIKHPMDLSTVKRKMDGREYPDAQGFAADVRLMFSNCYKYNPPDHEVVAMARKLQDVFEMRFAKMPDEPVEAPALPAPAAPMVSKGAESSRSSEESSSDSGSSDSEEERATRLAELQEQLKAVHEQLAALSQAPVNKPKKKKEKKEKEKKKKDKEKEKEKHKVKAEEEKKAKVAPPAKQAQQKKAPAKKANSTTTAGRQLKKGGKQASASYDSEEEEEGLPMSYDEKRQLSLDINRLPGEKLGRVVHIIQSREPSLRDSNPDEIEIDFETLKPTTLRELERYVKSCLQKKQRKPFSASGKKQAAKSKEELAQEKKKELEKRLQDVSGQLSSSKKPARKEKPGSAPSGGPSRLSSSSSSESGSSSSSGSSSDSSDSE

[23] = target: SWI/SNF-related matrix-associated actin-dependent regulator of chromatin subfamily A member 2 (Homo sapiens) (UniProt P51531); details: dose 200.0 µM, time 30.0 min
[24] = target: Bromodomain-containing protein 4 (Homo sapiens, UniProt O60885); details: dose 200.0 µM, time 30.0 min
[25] = Intrinsic clearance in human liver microsomes at 1 uM incubated for 45 mins in presence of NADPH by LC-MS/MS analysis; assay type: ADME, Microsome; details: read-out: CLH
LNCaP C4-2B [26] = assay: Suppression of PSA gene expression in human LNCaP C4-2B cells transfected with renilla luciferase incubated for 24 hrs by dual luciferase reporter assay; assay type: functional, cell-based; details: dose 0.4-10 µM, DDE = dose-dependent effect
LNCaP C4-2B [27] = assay: Antiproliferative activity against human LNCaP C4-2B cells assessed as inhibition of cell growth by Celltiter-Glo assay; assay type: functional, cell-based
[28] = Toxicity in NOD SCID mouse xenografted with human 22Rv1 cells assessed as mortality at 40 mg/kg, ip administered once daily for 21 days; assay type: organism-based, CWR22R; details: in vivo, 504 h, time 21 day
[29] = Hepatic clearance in rat liver microsomes at 1 uM incubated for 45 mins in presence of NADPH by LC-MS/MS analysis; assay type: ADME, Microsome
CWR22R [30] = assay: Suppression of Androgen receptor variants gene expression in human 22Rv1 cells incubated for 48 hrs by SYBR green dye-based qRT-PCR analysis; assay type: functional, cell-based; details: dose 0-20 µM, DDE = dose-dependent effect
CREB-binding protein = CREB-binding protein (Homo sapiens, UniProt Q92793); details: dose 200.0 µM, time 30.0 min
CWR22R [31] = assay: Antimigratory activity against human 22Rv1 cells assessed as reduction in cell migration at 5 uM incubated for 48 hrs by bright-field microscopy based wound healing assay relative to control; assay type: functional; parameters: scale not given: the % may be the effect or the level left

In the case of `COc1ccn2c(C(C)=O)cc(C(=O)Nc3cc(C(C)O)cc(-c4cnn(C5CC5)c4)c3F)c2c1` (stereo not drawn), the inhibition in vivo at 40 mg/kg (CWR22R [1]) was 78%, the Activity [2] was “Non-Toxic” and the Activity (CWR22R [3]) was “Dde”. For the same compound, the Activity (LNCaP C4-2B [4]) was 10.39%, the Activity (LNCaP [5]) was “Active” and the Activity (CWR22R [6]) was “Dde”. For the same compound, the Activity (LNCaP [7]) was “Active”, the half-life at 1 µM [8] was 45.9 min and the AUC(0-inf) [9] was 4820 ng·h/mL. It also gave a ΔTm [10] of 1 °C, a hepatic extraction ratio at 0.75 h, 1 µM (in vitro) of 0.495 and a Papp B→A at 2 h, 10 µM [11] of 11.8 ×10⁻⁶ cm/s. It also gave a ΔTm [12] of -0.6 °C, a pIC50 (CWR22R [13]) of 5.69 and a ΔTm [14] of -1.3 °C. For the same compound, the CLint scaled at 1 µM [15] was 54.1 mL/min/kg, the pKd [16] was 6.08 and the ΔTm [17] was 0 °C. It also gave a remaining at 0.75 h, 1 µM [18] of 50.7%, a CLint scaled at 1 µM [19] of 16.5 mL/min/kg and a ΔTm [20] of 0 °C. It also gave a bioavailability [21] of 25.9%, a pKd [22] of 5.82 and a ΔTm [23] of -0.5 °C. The ΔTm [24] was -1.5 °C, the CLint scaled at 1 µM [25] was 81.9 mL/min/kg and the Activity (LNCaP C4-2B [26]) was “Dde”. The pIC50 (LNCaP C4-2B [27]) was 5.19, the Activity [28] was “Non-Toxic” and the CLhep predicted at 1 µM [29] was 27.3 mL/min/kg. For the same compound, the Activity (CWR22R [30]) was “Dde”, the ΔTm (CREB-binding protein) was 11.5 °C and the Activity (CWR22R [31]) was 60%.
